Measured values reported in PubChem BioAssay (NCI).
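Tested at 5 concentrations; 48 h exposure; 96-well plates; endpoints linearly interpolated, else capped at highest concentration. The concentration for full growth arrest is given as TGI.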

Key:
Test in all cases: NCI tumour cell line growth inhibition, 48 h
A498 renal = tested on: A498 renal
A549 NSCLC = tested on: A549 NSCLC
CAKI-1 renal = tested on: CAKI-1 renal
CCRF-CEM leukemia = tested on: CCRF-CEM leukemia
COLO 205 colon = tested on: COLO 205 colon
DLD-1 colon = tested on: DLD-1 colon
DMS 114 small cell lung = tested on: DMS 114 small cell lung
DMS 273 small cell lung = tested on: DMS 273 small cell lung
EKVX NSCLC = tested on: EKVX NSCLC
HCC-2998 colon = tested on: HCC-2998 colon
HCT-116 colon = tested on: HCT-116 colon
HCT-15 colon = tested on: HCT-15 colon
HL-60(TB) leukemia = tested on: HL-60(TB) leukemia
HOP-18 NSCLC = tested on: HOP-18 NSCLC
HOP-62 NSCLC = tested on: HOP-62 NSCLC
HOP-92 NSCLC = tested on: HOP-92 NSCLC
HT29 colon = tested on: HT29 colon
IGROV1 ovarian = tested on: IGROV1 ovarian
K-562 leukemia = tested on: K-562 leukemia
KM12 colon = tested on: KM12 colon
KM20L2 colon = tested on: KM20L2 colon
LOX IMVI melanoma = tested on: LOX IMVI melanoma
M19-MEL melanoma = tested on: M19-MEL melanoma
MALME-3M melanoma = tested on: MALME-3M melanoma
MCF7 breast = tested on: MCF7 breast
MOLT-4 leukemia = tested on: MOLT-4 leukemia
NCI-H226 lung = tested on: NCI-H226 lung
NCI-H23 lung = tested on: NCI-H23 lung
NCI-H460 lung = tested on: NCI-H460 lung
NCI-H522 lung = tested on: NCI-H522 lung
NCI/ADR-RES ovarian = tested on: NCI/ADR-RES ovarian
OVCAR-3 ovarian = tested on: OVCAR-3 ovarian
OVCAR-4 ovarian = tested on: OVCAR-4 ovarian
OVCAR-5 ovarian = tested on: OVCAR-5 ovarian
OVCAR-8 ovarian = tested on: OVCAR-8 ovarian
P388 leukemia = tested on: P388 leukemia
P388/ADR leukemia = tested on: P388/ADR leukemia
RPMI-8226 leukemia = tested on: RPMI-8226 leukemia
RXF 393 renal = tested on: RXF 393 renal
SF-268 CNS = tested on: SF-268 CNS
SF-295 CNS = tested on: SF-295 CNS
SF-539 CNS = tested on: SF-539 CNS
SK-MEL-2 melanoma = tested on: SK-MEL-2 melanoma
SK-MEL-28 melanoma = tested on: SK-MEL-28 melanoma
SK-MEL-5 melanoma = tested on: SK-MEL-5 melanoma
SK-OV-3 ovarian = tested on: SK-OV-3 ovarian
SN12C renal = tested on: SN12C renal
SN12K1 renal = tested on: SN12K1 renal
SNB-19 CNS = tested on: SNB-19 CNS
SNB-75 CNS = tested on: SNB-75 CNS
SNB-78 CNS = tested on: SNB-78 CNS
SW-620 colon = tested on: SW-620 colon
U251 CNS = tested on: U251 CNS
UACC-257 melanoma = tested on: UACC-257 melanoma
UACC-62 melanoma = tested on: UACC-62 melanoma
UO-31 renal = tested on: UO-31 renal
XF 498 CNS = tested on: XF 498 CNS
786-0 renal = tested on: 786-0 renal
ACHN renal = tested on: ACHN renal
LXFL 529 NSCLC = tested on: LXFL 529 NSCLC
M14 melanoma = tested on: M14 melanoma
RXF-631 renal = tested on: RXF-631 renal
SR leukemia = tested on: SR leukemia
TK-10 renal = tested on: TK-10 renal

Structure (SMILES): O=C1CCCn2c3ccccc3c3ccnc1c32
- TGI (A498 renal): 32.2 µM
- TGI (A549 NSCLC): > 100 µM
- TGI (CAKI-1 renal): > 46.6 µM
- TGI (CCRF-CEM leukemia): > 100 µM
- TGI (COLO 205 colon): > 100 µM
- TGI (DLD-1 colon): > 100 µM
- TGI (DMS 114 small cell lung): > 100 µM
- TGI (DMS 273 small cell lung): > 100 µM
- TGI (EKVX NSCLC): > 85.2 µM
- TGI (HCC-2998 colon): > 100 µM
- TGI (HCT-116 colon): > 100 µM
- TGI (HCT-15 colon): > 100 µM
- TGI (HL-60(TB) leukemia): 23 µM
- TGI (HOP-18 NSCLC): > 100 µM
- TGI (HOP-62 NSCLC): > 100 µM
- TGI (HOP-92 NSCLC): > 100 µM
- TGI (HT29 colon): > 56.1 µM
- TGI (IGROV1 ovarian): > 100 µM
- TGI (K-562 leukemia): > 100 µM
- TGI (KM12 colon): > 100 µM
- TGI (KM20L2 colon): > 100 µM
- TGI (LOX IMVI melanoma): > 100 µM
- TGI (M19-MEL melanoma): > 100 µM
- TGI (MALME-3M melanoma): > 100 µM
- TGI (MCF7 breast): > 100 µM
- TGI (MOLT-4 leukemia): > 100 µM
- TGI (NCI-H226 lung): 56.4 µM
- TGI (NCI-H23 lung): > 100 µM
- TGI (NCI-H460 lung): > 100 µM
- TGI (NCI-H522 lung): > 100 µM
- TGI (NCI/ADR-RES ovarian): > 100 µM
- TGI (OVCAR-3 ovarian): > 100 µM
- TGI (OVCAR-4 ovarian): > 100 µM
- TGI (OVCAR-5 ovarian): > 100 µM
- TGI (OVCAR-8 ovarian): > 100 µM
- TGI (P388 leukemia): > 93.9 µM
- TGI (P388/ADR leukemia): > 100 µM
- TGI (RPMI-8226 leukemia): > 100 µM
- TGI (RXF 393 renal): 68.8 µM
- TGI (SF-268 CNS): > 100 µM
- TGI (SF-295 CNS): > 100 µM
- TGI (SF-539 CNS): > 100 µM
- TGI (SK-MEL-2 melanoma): > 100 µM
- TGI (SK-MEL-28 melanoma): > 100 µM
- TGI (SK-MEL-5 melanoma): > 100 µM
- TGI (SK-OV-3 ovarian): > 100 µM
- TGI (SN12C renal): > 100 µM
- TGI (SN12K1 renal): > 100 µM
- TGI (SNB-19 CNS): > 100 µM
- TGI (SNB-75 CNS): > 100 µM
- TGI (SNB-78 CNS): > 100 µM
- TGI (SW-620 colon): > 100 µM
- TGI (U251 CNS): > 100 µM
- TGI (UACC-257 melanoma): > 56.1 µM
- TGI (UACC-62 melanoma): 98 µM
- TGI (UO-31 renal): > 100 µM
- TGI (XF 498 CNS): 74.5 µM

Structure (SMILES): NNC(=S)N/N=C(\c1nc2ccc(Cl)cc2[nH]c1=O)C(O)c1ccc(Cl)cc1Cl (centres undefined)
- TGI (786-0 renal): > 100 µM
- TGI (A498 renal): > 100 µM
- TGI (A549 NSCLC): > 100 µM
- TGI (ACHN renal): > 100 µM
- TGI (CAKI-1 renal): > 100 µM
- TGI (CCRF-CEM leukemia): > 100 µM
- TGI (COLO 205 colon): > 100 µM
- TGI (DLD-1 colon): > 100 µM
- TGI (DMS 114 small cell lung): > 100 µM
- TGI (DMS 273 small cell lung): > 100 µM
- TGI (EKVX NSCLC): > 100 µM
- TGI (HCT-116 colon): > 100 µM
- TGI (HCT-15 colon): > 100 µM
- TGI (HL-60(TB) leukemia): > 100 µM
- TGI (HOP-18 NSCLC): > 100 µM
- TGI (HOP-62 NSCLC): > 100 µM
- TGI (HOP-92 NSCLC): > 100 µM
- TGI (HT29 colon): > 100 µM
- TGI (IGROV1 ovarian): > 100 µM
- TGI (K-562 leukemia): > 100 µM
- TGI (KM12 colon): > 100 µM
- TGI (KM20L2 colon): > 100 µM
- TGI (LOX IMVI melanoma): > 100 µM
- TGI (LXFL 529 NSCLC): > 100 µM
- TGI (M14 melanoma): > 100 µM
- TGI (M19-MEL melanoma): > 100 µM
- TGI (MALME-3M melanoma): > 100 µM
- TGI (MOLT-4 leukemia): > 100 µM
- TGI (NCI-H226 lung): > 100 µM
- TGI (NCI-H23 lung): > 100 µM
- TGI (NCI-H460 lung): > 100 µM
- TGI (NCI-H522 lung): > 100 µM
- TGI (OVCAR-4 ovarian): > 100 µM
- TGI (OVCAR-5 ovarian): > 100 µM
- TGI (OVCAR-8 ovarian): > 100 µM
- TGI (RPMI-8226 leukemia): > 100 µM
- TGI (RXF 393 renal): > 100 µM
- TGI (RXF-631 renal): > 100 µM
- TGI (SF-268 CNS): > 100 µM
- TGI (SF-295 CNS): > 100 µM
- TGI (SF-539 CNS): > 100 µM
- TGI (SK-MEL-2 melanoma): > 100 µM
- TGI (SK-MEL-28 melanoma): > 100 µM
- TGI (SK-MEL-5 melanoma): > 100 µM
- TGI (SK-OV-3 ovarian): > 100 µM
- TGI (SN12C renal): > 100 µM
- TGI (SNB-19 CNS): > 100 µM
- TGI (SNB-75 CNS): > 100 µM
- TGI (SNB-78 CNS): > 100 µM
- TGI (SR leukemia): > 100 µM
- TGI (SW-620 colon): > 100 µM
- TGI (TK-10 renal): > 100 µM
- TGI (U251 CNS): > 100 µM
- TGI (UACC-257 melanoma): > 100 µM
- TGI (UACC-62 melanoma): > 100 µM
- TGI (UO-31 renal): > 100 µM
- TGI (XF 498 CNS): > 100 µM
